# From US20090062388A1, “Use of acetyl L-carnitine for the preparation of a medication for the preventive therapy for pain” (Sigma-Tau Industrie Farmaceutiche Riunite S.p.A., priority 2001, published 2009)
# How the values were obtained:
# Male Swiss Webster mice [1] = assay: Abdominal constriction test (acetic acid IP); format: in vivo; settings: for Number of constrictions (0.3% acetic acid) / Number of constrictions (0.6% acetic acid): 3 mg/ml in drinking water
# Procedure: The second experiment was the abdominal constriction test.
# The abdominal constriction test was carried out according to Koster et al. in Fed. Proc. 18: 412, 1959.
# According to this test, an IP injection of 0.6% acetic acid solution is to be made 5 minutes before starting the observation, which lasted 10 minutes.
# In some experiments, the percentage of acetic acid was reduced by half (0.3%).
# Male Swiss Webster mice [2] = assay: Hyperalgesia induced by NMDA (hot plate); format: in vivo
# Procedure: This test was carried out in compliance with what described in the rats by Davies and Inturrisi in J. Pharmacol. Exp. Ther., 289: 1048-1053, 1999, but was applied to the mice by us.
# According to this test, the hyperalgesia, assessed through the hot plate test, is to be induced by intrathecal administration of an NMDA solution (1.64 μg/mouse; administered around 15 minutes after the last administration of acetyl L-carnitine).
# The reduction in the pain threshold, which reaches its peak 15 minutes after the injection of NMDA, disappears within 30 minutes from the administration.
# [3] = tested on: M1 muscarinic receptor sub-type; assay: Hot plate: acetyl L-carnitine analgesia after anti-M1 antisense oligonucleotide ICV; format: in vivo, mice; settings: Acetyl L-carnitine 100 mg/kg BID SC 7 days
# Source text: The observation that the analgesia induced by the acetyl L-carnitine is mediated by the M1 muscarinic receptor sub-type is confirmed by the application of the anti-sense strategy.
compound,measurement,setting,value
"CC(=O)O[C@H](CC(=O)[O-])C[N+](C)(C)C [Acetyl L-carnitine, acetyl L-carnitine]",Number of constrictions (0.3% acetic acid),Male Swiss Webster mice [1]; sub-chronic treatment 7 days,12.7 ± 3.5
same,Number of constrictions (0.6% acetic acid),Male Swiss Webster mice [1]; sub-chronic treatment 7 days,31.5 ± 4.0
same,Number of constrictions (0.3% acetic acid),Male Swiss Webster mice [1]; sub-chronic treatment 14 days,11.9 ± 2.2
same,Number of constrictions (0.6% acetic acid),Male Swiss Webster mice [1]; sub-chronic treatment 14 days,28.3 ± 5.1
same,"antinociceptive effect, abdominal constriction test","Male Swiss Webster mice [1]; 0.6% acetic acid, 30 mg/kg IP (or SC), 18-day treatment (FIG. 3)",had no effect
same,"antinociceptive effect, abdominal constriction test","Male Swiss Webster mice [1]; 0.6% acetic acid, 100 mg/kg BID, SC or IP, 14 days of treatment (FIG. 1)",exerted an antinociceptive effect
same,"antinociceptive effect, abdominal constriction test","Male Swiss Webster mice [1]; 0.6% acetic acid, 100 mg/kg acute administration (SC or IP) or repeated for 7 days (FIG. 1)",had no effect at all
same,"antinociceptive effect, abdominal constriction test","Male Swiss Webster mice [1]; small concentration of acid, 30 mg/kg, 14 days (FIG. 4)",the statistic significance was obtained after 14 days
same,pain threshold in abdominal constriction test (0.3 and 0.6%),Male Swiss Webster mice [1]; solution 3 mg/ml in bottle for 7 and 14 days,no increase in the pain threshold was observed
same,effect on reduction in pain threshold induced by NMDA,"Male Swiss Webster mice [2]; 30 mg/kg BID, IP or SC for 7 days (FIG. 7)",not found to be active
same,effect on reduction in pain threshold induced by NMDA,"Male Swiss Webster mice [2]; 100 mg/kg BID, SC or IP for 7 days, NMDA 1.64 μg/mouse intrathecal (FIG. 7)",anti-nociceptive effect
same,Hot plate Licking latency,"[3]; pre-treat. AODN 3 nmol ICV, 24 hours after last injection, before treatment",13.5 ± 0.8 s
same,Hot plate Licking latency,"[3]; pre-treat. AODN 3 nmol ICV, after treatment 15 min",16.6 ± 1.9 s
same,Hot plate Licking latency,"[3]; pre-treat. AODN 3 nmol ICV, after treatment 30 min",15.8 ± 1.8 s
same,Hot plate Licking latency,"[3]; pre-treat. AODN 3 nmol ICV, after treatment 45 min",15.8 ± 1.5 s
same,Hot plate Licking latency,"[3]; pre-treat. dODN 3 nmol ICV, 24 hours after last injection, before treatment",23.6 ± 1.1 s
same,Hot plate Licking latency,"[3]; pre-treat. dODN 3 nmol ICV, after treatment 15 min",22.6 ± 2.3 s
same,Hot plate Licking latency,"[3]; pre-treat. dODN 3 nmol ICV, after treatment 30 min",21.9 ± 1.5 s
same,Hot plate Licking latency,"[3]; pre-treat. dODN 3 nmol ICV, after treatment 45 min",22.3 ± 1.7 s
